Legend:
Solubility (comparison) = assay type: physicochemical
TBK1 = target: T1, TBK1 (Homo sapiens, UniProt Q9UHD2); test: IFN-beta luciferase reporter in HEK293T cells transfected with TBK1; assay type: cell-based; settings: 0.01-5µM
T1 construct: expressed in transfected cells; host or cells: HEK293T
T1 sequence (Q9UHD2 1-729): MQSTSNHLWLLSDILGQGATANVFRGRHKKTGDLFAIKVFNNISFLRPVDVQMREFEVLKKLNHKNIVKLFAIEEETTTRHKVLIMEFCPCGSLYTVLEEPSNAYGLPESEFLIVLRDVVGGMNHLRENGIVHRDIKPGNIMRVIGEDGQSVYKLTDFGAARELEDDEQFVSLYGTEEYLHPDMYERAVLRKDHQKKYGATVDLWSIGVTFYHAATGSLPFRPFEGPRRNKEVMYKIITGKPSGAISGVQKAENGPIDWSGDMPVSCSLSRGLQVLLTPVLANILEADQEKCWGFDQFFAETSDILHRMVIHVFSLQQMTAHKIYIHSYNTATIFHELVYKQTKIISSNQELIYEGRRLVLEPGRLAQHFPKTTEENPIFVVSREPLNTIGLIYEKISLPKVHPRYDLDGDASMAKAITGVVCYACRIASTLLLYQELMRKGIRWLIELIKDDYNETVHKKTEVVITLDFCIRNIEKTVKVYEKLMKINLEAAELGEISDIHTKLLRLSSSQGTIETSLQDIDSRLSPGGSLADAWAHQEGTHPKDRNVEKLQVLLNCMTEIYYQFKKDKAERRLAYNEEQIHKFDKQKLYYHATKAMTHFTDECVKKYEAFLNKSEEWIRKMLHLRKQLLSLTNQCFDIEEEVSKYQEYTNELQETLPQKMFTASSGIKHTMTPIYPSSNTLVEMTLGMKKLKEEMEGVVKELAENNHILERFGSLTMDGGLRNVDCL

STING [1] = target: T2, STING (Mus musculus, UniProt Q3TBT3); test: Blue native gel assay of STING clusters; assay type: cell-based; parameters: expressed in transfected cells; host or cells: HEK293T; settings: C-178, C-176 1 µM, 2-BP 50 µM; CMA 1.5 h
T2 sequence (Q3TBT3 1-378): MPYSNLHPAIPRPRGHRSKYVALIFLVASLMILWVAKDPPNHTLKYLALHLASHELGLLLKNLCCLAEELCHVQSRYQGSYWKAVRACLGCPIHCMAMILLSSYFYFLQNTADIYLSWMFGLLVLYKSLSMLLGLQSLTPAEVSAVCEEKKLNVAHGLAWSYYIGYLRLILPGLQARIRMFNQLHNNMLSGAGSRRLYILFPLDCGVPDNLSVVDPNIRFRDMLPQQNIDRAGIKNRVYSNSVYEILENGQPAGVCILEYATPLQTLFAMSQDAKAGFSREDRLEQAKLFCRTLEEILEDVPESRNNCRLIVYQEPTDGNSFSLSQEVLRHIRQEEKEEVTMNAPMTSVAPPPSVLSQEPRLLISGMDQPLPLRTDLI
Procedure: (§1) Reporter activity was measured 16 h after compound treatment. A nonlinear regression analysis was performed. […] Circles indicate substitutes compared to C-176. d, e, Chemical compounds from (c) were tested at 0.5 µM for inhibitory activity in HEK293T cells transfected with STING (e) or RIG-I (f) in conjunction with IFN-• luciferase reporter, respectively. b, e, f, Values of inhibitor-treated cells were normalized to DMSO-treated cells. […] Cytokine levels were normalized to DMSO-treated control cells. A nonlinear regression analysis was performed for cGAMP stimulation. b, c, BMDMs were pre-treated with C-178 (0.25 µM) and stimulated with cGAMP, cyclic di-GMP, CMA, 90mer dsDNA or LPS for 3 h. The induction of Ifnb1 mRNA levels was assessed by RT-qPCR. d, Heatmaps of RNA sequencing analysis of BMDMs treated with DMSO or CMA and with or without addition of C-178. […] Reporter activity was measured 16 h after transfection and values were normalized to DMSO-treated control cells. c, BMDMs were treated with C-178 (0.25 µM) for 1 h, washed or left untreated and after an additional hour stimulated with cGAMP. […] Flag-STING was immunoprecipitated from whole cell lysate and analysed by autoradiography. In parallel, cell lysates were analysed by immunoblotting for p-TBK1 and STING. d, HEK293T cells expressing STING were treated as indicated (C-178 (1 µM)) and stimulated with CMA for 1.5 h. […]

[2] = mouse, in vivo, ip
STING [3] = target: T2, STING; test: Flag immunoprecipitation, recruitment of TBK1 to STING; assay type: cell-based; parameters: expressed in transfected cells; host or cells: HEK293T; settings: HEK293T expressing Flag-STING; 1 µM; CMA 2 h
STING [4] = target: T2, STING; test: Metabolic labelling with [3H] palmitate, Flag-STING in HEK293T cells; assay type: cell-based; parameters: expressed in transfected cells; host or cells: HEK293T; settings: HEK293T expressing Flag-STING; 1 µM; CMA 2 h
Procedure: as §1

O=C(Nc1ccc(I)cc1)c1ccc([N+](=O)[O-])o1 [C-176, N-(4-iodophenyl)-5-nitro-2-furamide]
solubility relative to C-178 (Solubility (comparison)): improved solubility | TBK1-driven IFN induction (TBK1): neither RIG-I nor TBK1-driven IFN induction was affected | assembly of STING clusters (STING [1]): blocked | serum half-life [2]: short | recruitment of TBK1 (STING [3]): block | [^3H] palmitate labelling of STING (STING [4]): inhibited

Reference: patent publication EP3502102A1, “STING INHIBITORS” (ECOLE POLYTECHNIQUE FEDERALE DE LAUSANNE (EPFL), priority 2017, dated 2019)
